Data: the supplement of paper PMC10307832

How the values were obtained:
Test in all cases: relative viability (nuclei count vs DMSO), 5 days (fraction); higher = more cells survive
RU-SKI 43 + Trametinib = compound: CC[C@@H](C)CNCC(=O)N1CCC2=C([C@@H]1COC3=CC=CC(=C3)C)C=CS2 [RU-SKI 43] + CC(=O)Nc1cccc(-n2c(=O)n(C3CC3)c(=O)c3c(Nc4ccc(I)cc4F)n(C)c(=O)c(C)c32)c1 [Trametinib] (partner 0.02 µM)
Method in brief: (§1)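 Lung cancer cell lines in 1536-well plates were dosed by pin tool the day after seeding, either with one drug alone or with a fixed anchor-drug dose plus five library-drug doses (not always all listed) in √10 steps. After 5 days, cells were fixed and their nuclei stained in one step (final 0.05% Triton X-100, 1% formaldehyde, 1 ug/ml Hoechst), then counted on 4× images. Relative viability is the nuclei count in treated wells divided by that in vehicle wells. Values are medians of duplicate plates.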

RU-SKI 43 + OSI-027 = compound: CC[C@@H](C)CNCC(=O)N1CCC2=C([C@@H]1COC3=CC=CC(=C3)C)C=CS2 [RU-SKI 43] + COc1cccc2cc(-c3nc([C@H]4CC[C@H](C(=O)O)CC4)n4ncnc(N)c34)[nH]c12 [OSI-027] (partner 0.5 µM)
Method in brief: as §1

MK-8033 + Linsitinib = compound: Cn1cc(-c2cnc3ccc4ccc(CS(=O)(=O)NCc5ccccn5)cc4c(=O)c3c2)cn1 [MK-8033] + C[C@]1(O)C[C@@H](c2nc(-c3ccc4ccc(-c5ccccc5)nc4c3)c3c(N)nccn32)C1 [Linsitinib] (partner 1 µM)
Method in brief: as §1

MK-8033 + Tozasertib = compound: Cn1cc(-c2cnc3ccc4ccc(CS(=O)(=O)NCc5ccccn5)cc4c(=O)c3c2)cn1 [MK-8033] + Cc1cc(Nc2cc(N3CCN(C)CC3)nc(Sc3ccc(NC(=O)C4CC4)cc3)n2)n[nH]1 [Tozasertib] (partner 0.1 µM)
Method in brief: as §1

Cell Line | relative viability (RU-SKI 43 + Trametinib; first compound 0.1 µM) | relative viability (RU-SKI 43 + Trametinib; first compound 0.3162 µM) | relative viability (RU-SKI 43 + Trametinib; first compound 1 µM) | relative viability (RU-SKI 43 + Trametinib; first compound 3.162 µM) | relative viability (RU-SKI 43 + Trametinib; first compound 10 µM) | relative viability (RU-SKI 43 + OSI-027; first compound 0.1 µM) | relative viability (RU-SKI 43 + OSI-027; first compound 0.3162 µM) | relative viability (RU-SKI 43 + OSI-027; first compound 1 µM) | relative viability (RU-SKI 43 + OSI-027; first compound 3.162 µM) | relative viability (RU-SKI 43 + OSI-027; first compound 10 µM) | relative viability (MK-8033 + Linsitinib; first compound 0.02 µM) | relative viability (MK-8033 + Linsitinib; first compound 0.06325 µM) | relative viability (MK-8033 + Linsitinib; first compound 0.2 µM) | relative viability (MK-8033 + Linsitinib; first compound 0.6325 µM) | relative viability (MK-8033 + Linsitinib; first compound 2 µM) | relative viability (MK-8033 + Tozasertib; first compound 0.02 µM) | relative viability (MK-8033 + Tozasertib; first compound 0.06325 µM) | relative viability (MK-8033 + Tozasertib; first compound 0.2 µM) | relative viability (MK-8033 + Tozasertib; first compound 0.6325 µM) | relative viability (MK-8033 + Tozasertib; first compound 2 µM)
HCC-366 | 0.34 | 0.253 | 0.311 | 0.333 | 0.212 | 0.962 | 0.94 | 1.02 | 0.931 | 0.452 | 0.675 | 0.565 | 0.619 | 0.587 | 0.643 | 0.114 | 0.131 | 0.0893 | 0.102 | 0.0504
HCC-827 | 0.501 | 0.52 | 0.545 | 0.574 | 0.46 | 0.73 | 0.94 | 0.889 | 0.783 | 0.736 | 0.957 |  | 0.947 | 0.968 | 0.948 | 0.412 |  | 0.402 | 0.4 | 0.401
HOP-62 | 0.358 | 0.428 | 0.374 | 0.405 | 0.314 | 0.912 | 1.02 | 1.1 | 0.915 | 0.928 | 0.62 | 0.99 | 0.898 | 0.895 | 1.01 | 0.406 | 0.339 | 0.359 | 0.352 | 0.344
IA-LM |  |  |  |  |  |  |  |  |  |  | 0.522 | 0.465 | 0.654 | 0.61 | 0.587 |  |  |  |  | 
LC-2-ad | 0.951 | 1.08 | 0.985 | 0.928 | 0.847 | 0.733 | 0.821 | 1.04 | 0.979 | 0.789 | 0.82 | 0.75 | 0.796 | 0.822 | 0.795 | 0.441 | 0.385 |  | 0.512 | 0.409
LCLC-97TM1 | 0.193 | 0.246 | 0.256 | 0.187 | 0.148 | 0.486 | 0.551 | 0.627 | 0.496 | 0.485 | 0.173 | 0.149 | 0.202 | 0.181 | 0.207 | 0.2 | 0.237 | 0.241 | 0.223 | 0.216
LCLC-103H | 0.689 | 0.755 | 0.726 | 0.677 | 0.724 | 0.512 | 0.576 | 0.567 | 0.486 | 0.56 | 1.01 | 1.04 | 1.05 | 1.11 | 1.17 | 0.489 | 0.556 | 0.438 | 0.55 | 0.461
LK-2 | 0.766 | 1.01 | 0.915 | 0.828 | 0.736 | 0.182 | 0.169 | 0.227 | 0.177 | 0.183 | 0.642 | 0.509 | 0.527 | 0.317 | 0.508 | 0.174 |  | 0.179 | 0.182 | 0.198
LOU-NH91 | 0.774 | 0.749 | 0.802 | 0.825 | 0.808 | 0.752 | 0.642 | 0.74 | 0.774 | 0.728 | 0.93 |  | 0.912 | 0.89 | 0.992 | 0.653 | 0.406 | 0.644 | 0.644 | 0.678
